Measured values reported in PubChem BioAssay AID248 (DTP/NCI, 2004).
Toxic doses and inconclusive results are not listed. Rule as the data show it: active = T/C of 150% or more; inactive = T/C below 125%.

System: L1210 leukemia ip in BDF1 mice, survival T/C
Assay: NCI In Vivo Anticancer Drug Screen. Data for tumor model L1210 Leukemia (intraperitoneal) in B6D2F1 (BDF1) mice
Details: endpoint: mean survival time, higher = longer survival
How it was run: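 Transplantable tumor model; survival measured in treated vs vehicle control mice. Value = treated/control.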

[1] = dose: 100.0 mg/kg/injection, schedule: Q04DX003 (ip), vehicle: Klucel (hydroxypropylcellulose) (HPC)
[2] = dose: 100.0 mg/kg/injection, schedule: Q04DX003 (ip), vehicle: saline with Tween-80
[3] = dose: 200.0 mg/kg/injection, schedule: Q04DX003 (ip), vehicle: Klucel (hydroxypropylcellulose) (HPC)
[4] = dose: 400.0 mg/kg/injection, schedule: Q04DX003 (ip), vehicle: Klucel (hydroxypropylcellulose) (HPC)
[5] = dose: 100.0 mg/kg/injection, schedule: Q01DX001 (ip), vehicle: other
[6] = dose: 200.0 mg/kg/injection, schedule: Q01DX001 (ip), vehicle: other

Measured: T/C

O=C(O)CCCCSc1ncnc2nc[nH]c12
inactive: dose: 15.0 mg/kg/injection, schedule: Q01DX009 (ip), vehicle: saline with Tween-80 106 % of control | dose: 15.0 mg/kg/injection, schedule: Q01DX009 (oral), vehicle: saline with Tween-80 98 % of control | dose: 30.0 mg/kg/injection, schedule: Q01DX009 (ip), vehicle: saline with Tween-80 103 % of control | dose: 30.0 mg/kg/injection, schedule: Q01DX009 (oral), vehicle: saline with Tween-80 86 % of control | dose: 60.0 mg/kg/injection, schedule: Q01DX009 (ip), vehicle: saline with Tween-80 92 % of control | dose: 60.0 mg/kg/injection, schedule: Q01DX009 (oral), vehicle: saline with Tween-80 95 % of control | dose: 100.0 mg/kg/injection, schedule: Q01DX009 (ip), vehicle: Klucel (hydroxypropylcellulose) (HPC) 113 % of control | [1] 107 % of control | [2] 103 % of control | dose: 120.0 mg/kg/injection, schedule: Q01DX009 (ip), vehicle: saline with Tween-80 123 % of control | dose: 120.0 mg/kg/injection, schedule: Q01DX009 (oral), vehicle: saline with Tween-80 109 % of control | dose: 200.0 mg/kg/injection, schedule: Q01DX009 (ip), vehicle: Klucel (hydroxypropylcellulose) (HPC) 101 % of control | [3] 102 % of control | dose: 200.0 mg/kg/injection, schedule: Q04DX003 (ip), vehicle: saline with Tween-80 104 % of control | dose: 240.0 mg/kg/injection, schedule: Q01DX009 (ip), vehicle: saline with Tween-80 105 % of control | dose: 240.0 mg/kg/injection, schedule: Q01DX009 (oral), vehicle: saline with Tween-80 91 % of control | dose: 400.0 mg/kg/injection, schedule: Q01DX009 (ip), vehicle: Klucel (hydroxypropylcellulose) (HPC) 116 % of control | [4] 115 % of control | dose: 400.0 mg/kg/injection, schedule: Q04DX003 (ip), vehicle: saline with Tween-80 103 % of control | dose: 480.0 mg/kg/injection, schedule: Q01DX009 (ip), vehicle: saline with Tween-80 118 % of control | dose: 480.0 mg/kg/injection, schedule: Q01DX009 (oral), vehicle: saline with Tween-80 100 % of control | dose: 720.0 mg/kg/injection, schedule: Q01DX009 (oral), vehicle: saline with Tween-80 100 % of control

Cc1ccc2c(c1)N(CCCN(C)C)c1ccccc1S2
inactive: dose: 12.5 mg/kg/injection, schedule: Q04DX003 (ip), vehicle: saline 102 % of control | dose: 25.0 mg/kg/injection, schedule: Q04DX003 (ip), vehicle: saline 116 % of control

Nc1ccc2c(c1)C(=O)c1cc(N)ccc1-2
inactive: dose: 100.0 mg/kg/injection, schedule: Q01DX001 (ip), vehicle: carboxymethylcellulose (CMC) 102 % of control | [1] 103 % of control | dose: 200.0 mg/kg/injection, schedule: Q01DX001 (ip), vehicle: carboxymethylcellulose (CMC) 102 % of control | [3] 103 % of control | dose: 400.0 mg/kg/injection, schedule: Q01DX001 (ip), vehicle: carboxymethylcellulose (CMC) 98 % of control | [4] 108 % of control

CC(=O)C(C(=O)c1ccccc1)c1cc(NS(=O)(=O)N(C)C)ccc1NS(=O)(=O)N(C)C (stereo not drawn)
inactive: dose: 25.0 mg/kg/injection, schedule: Q01DX001 (ip), vehicle: saline with Tween-80 98 % of control | dose: 50.0 mg/kg/injection, schedule: Q01DX001 (ip), vehicle: saline with Tween-80 93 % of control | dose: 100.0 mg/kg/injection, schedule: Q01DX001 (ip), vehicle: saline with Tween-80 100 % of control

CC12CC3CC(C)(C1)CC(N)(C3)C2
inactive: dose: 50.0 mg/kg/injection, schedule: Q01DX001 (ip), vehicle: carboxymethylcellulose (CMC) 98 % of control

CN(C)c1ccc(/C(=C(\c2ccccc2)c2ccc(N(C)C)cc2)c2ccccc2)cc1
inactive: [1] 90 % of control | [3] 93 % of control | [4] 89 % of control

CCC1(O)C(=O)OCc2c1cc(-c1ccccc1)n(C)c2=O (stereo not drawn)
inactive: dose: 25.0 mg/kg/injection, schedule: Q01DX001 (ip), vehicle: other 101 % of control | dose: 50.0 mg/kg/injection, schedule: Q01DX001 (ip), vehicle: other 113 % of control | [5] 101 % of control | [6] 98 % of control

CCCCNC(c1ccc(C=NC(CC)(CO)CO)cc1)C(Br)(Br)Br (stereo not drawn)
inactive: dose: 100.0 mg/kg/injection, schedule: Q01DX001 (ip), vehicle: saline 92 % of control | dose: 100.0 mg/kg/injection, schedule: Q01DX009 (ip), vehicle: saline 88 % of control | dose: 200.0 mg/kg/injection, schedule: Q01DX001 (ip), vehicle: saline 92 % of control | dose: 200.0 mg/kg/injection, schedule: Q01DX009 (ip), vehicle: saline 90 % of control | dose: 400.0 mg/kg/injection, schedule: Q01DX001 (ip), vehicle: saline 97 % of control | dose: 400.0 mg/kg/injection, schedule: Q01DX009 (ip), vehicle: saline 91 % of control

CCCNC(C)(C)C(SSSC(c1cccs1)C(C)(C)NCCC)c1cccs1 (stereo not drawn)
inactive: dose: 12.5 mg/kg/injection, schedule: Q01DX009 (ip), vehicle: saline 101 % of control | dose: 12.5 mg/kg/injection, schedule: Q04DX003 (ip), vehicle: Klucel (hydroxypropylcellulose) (HPC) 96 % of control | dose: 25.0 mg/kg/injection, schedule: Q01DX009 (ip), vehicle: saline 95 % of control | dose: 25.0 mg/kg/injection, schedule: Q04DX003 (ip), vehicle: Klucel (hydroxypropylcellulose) (HPC) 106 % of control | dose: 50.0 mg/kg/injection, schedule: Q01DX009 (ip), vehicle: saline 92 % of control | dose: 50.0 mg/kg/injection, schedule: Q04DX003 (ip), vehicle: Klucel (hydroxypropylcellulose) (HPC) 96 % of control | dose: 75.0 mg/kg/injection, schedule: Q01DX009 (ip), vehicle: Klucel (hydroxypropylcellulose) (HPC) 98 % of control | dose: 75.0 mg/kg/injection, schedule: Q01DX009 (ip), vehicle: saline 88 % of control | dose: 115.0 mg/kg/injection, schedule: Q01DX009 (ip), vehicle: Klucel (hydroxypropylcellulose) (HPC) 97 % of control | dose: 170.0 mg/kg/injection, schedule: Q01DX009 (ip), vehicle: Klucel (hydroxypropylcellulose) (HPC) 96 % of control | dose: 170.0 mg/kg/injection, schedule: Q01DX009 (ip), vehicle: saline 89 % of control

Cc1cccc(NC(=O)C2CCC(CC3CCCCC3)CC2)c1 (stereo not drawn)
inactive: dose: 50.0 mg/kg/injection, schedule: Q01DX001 (ip), vehicle: Klucel (hydroxypropylcellulose) (HPC) 89 % of control | dose: 100.0 mg/kg/injection, schedule: Q01DX001 (ip), vehicle: Klucel (hydroxypropylcellulose) (HPC) 89 % of control | dose: 200.0 mg/kg/injection, schedule: Q01DX001 (ip), vehicle: Klucel (hydroxypropylcellulose) (HPC) 87 % of control

CCC[CH2][Sn]([CH2]CCC)([CH2]CCC)[CH2]c1ccccc1
inactive: dose: 100.0 mg/kg/injection, schedule: Q04DX003 (ip), vehicle: saline 98 % of control | dose: 200.0 mg/kg/injection, schedule: Q04DX003 (ip), vehicle: saline 102 % of control | dose: 400.0 mg/kg/injection, schedule: Q04DX003 (ip), vehicle: saline 88 % of control

N#Cc1cn(C2CCCCC2)c2ncccc12
inactive: dose: 25.0 mg/kg/injection, schedule: Q04DX003 (ip), vehicle: saline with Tween-80 90 % of control | dose: 50.0 mg/kg/injection, schedule: Q04DX003 (ip), vehicle: saline with Tween-80 97 % of control | [2] 93 % of control

CCCCC(=O)NCC(=O)N1CCC(C(=O)NCCCCC(=O)OC)C1 (stereo not drawn)
inactive: dose: 100.0 mg/kg/injection, schedule: Q04DX002 (ip), vehicle: saline 96 % of control | dose: 200.0 mg/kg/injection, schedule: Q04DX002 (ip), vehicle: saline 115 % of control | dose: 400.0 mg/kg/injection, schedule: Q04DX002 (ip), vehicle: saline 104 % of control

O=[N+]([O-])c1ccc(/C=N\N=C\c2ccc([N+](=O)[O-])cc2)cc1
inactive: [5] 104 % of control | [6] 104 % of control | dose: 400.0 mg/kg/injection, schedule: Q01DX001 (ip), vehicle: other 104 % of control
